# Values of other authors, collected in patent EP3646858A1, “ENCAPSULATED FORMULATIONS” (Pharmalink, SL, priority 2017, dated 2019).
# Settings: association with piperine; inhibition of hepatic and intestinal glucuronidation
structure (smiles),measurement,value
COc1cc(/C=C/C(=O)CC(=O)/C=C/c2ccc(O)c(OC)c2)ccc1O [curcumin],increase of the bioavailability of curcumin,20 fold
